# Measured values reported in ChEMBL document CHEMBL1201862, “PubChem BioAssay data set” (2004).
# Calls of active or inactive are those of the source.
# How the values were obtained:
# [1] = P. falciparum 3D7-ScDHODH growth inhibitors, dose response, SYBR Green, dry powder samples (AID 1159570); format: functional, cell-based;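 note: parasite growth measured after 72 hours of compound exposure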
# [2] = Plasmodium falciparum Dd2 Sybr green parasite growth Measured in Cell-Based and Microorganism Combination System Using Plate Reader - 2153-01_Inhibitor_Dose_DryPowder_Activity_Set3.; format: functional
# [3] = P. falciparum Dd2 growth inhibitors, dose response, SYBR Green, cherry-picked samples (AID 1159567); format: functional, cell-based
# [4] = P. falciparum Dd2 growth inhibitors, dose response, SYBR Green, dry powder samples, set 9 (AID 1159568); format: functional, cell-based
# [5] = P. falciparum Dd2 growth inhibitors, dose response, SYBR Green, dry powder samples (AID 1159566); format: functional, cell-based;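 note: potency for growth inhibition with lower SYBR green DNA signal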
# [6] = HepG2 cell cytotoxicity, dose response, cytotoxicity control, plate reader, dry powder samples (AID 1159569); format: functional, cell-based;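 note: inhibitor potency with signal falling toward the positive control level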
# [7] = P. falciparum ATP4 D1247Y mutant growth inhibitors, dose response, NITD609-resistant line, SYBR Green, dry powder (AID 1159571); format: functional, cell-based;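 note: parasites synchronized at ring stage by sorbitol before testing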
# Estrogen receptor = biological target: T1, Estrogen receptor (Homo sapiens, UniProt P03372);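 note: potency for inhibiting coactivator peptide recruitment to the receptor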
# T1 sequence (P03372 whole entry): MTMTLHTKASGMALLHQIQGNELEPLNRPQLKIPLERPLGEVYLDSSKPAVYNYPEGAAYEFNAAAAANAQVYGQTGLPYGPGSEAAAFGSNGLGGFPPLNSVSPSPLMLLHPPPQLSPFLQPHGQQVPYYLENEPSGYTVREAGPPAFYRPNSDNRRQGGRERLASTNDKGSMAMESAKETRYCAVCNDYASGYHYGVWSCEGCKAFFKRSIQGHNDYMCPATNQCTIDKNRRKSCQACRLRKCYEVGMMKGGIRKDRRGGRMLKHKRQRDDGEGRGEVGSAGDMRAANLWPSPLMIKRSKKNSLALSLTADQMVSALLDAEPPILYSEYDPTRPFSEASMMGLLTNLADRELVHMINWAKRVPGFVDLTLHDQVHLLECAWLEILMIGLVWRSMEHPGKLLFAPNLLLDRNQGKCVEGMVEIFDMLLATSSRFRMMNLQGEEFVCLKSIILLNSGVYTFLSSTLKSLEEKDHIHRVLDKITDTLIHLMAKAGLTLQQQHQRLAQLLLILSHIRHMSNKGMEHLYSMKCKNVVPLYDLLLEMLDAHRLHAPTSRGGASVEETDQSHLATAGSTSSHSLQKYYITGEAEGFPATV
# Protein skinhead-1 = biological target: T2, Protein skinhead-1 (Caenorhabditis elegans, UniProt P34707); format: functional
# T2 sequence (P34707 whole entry): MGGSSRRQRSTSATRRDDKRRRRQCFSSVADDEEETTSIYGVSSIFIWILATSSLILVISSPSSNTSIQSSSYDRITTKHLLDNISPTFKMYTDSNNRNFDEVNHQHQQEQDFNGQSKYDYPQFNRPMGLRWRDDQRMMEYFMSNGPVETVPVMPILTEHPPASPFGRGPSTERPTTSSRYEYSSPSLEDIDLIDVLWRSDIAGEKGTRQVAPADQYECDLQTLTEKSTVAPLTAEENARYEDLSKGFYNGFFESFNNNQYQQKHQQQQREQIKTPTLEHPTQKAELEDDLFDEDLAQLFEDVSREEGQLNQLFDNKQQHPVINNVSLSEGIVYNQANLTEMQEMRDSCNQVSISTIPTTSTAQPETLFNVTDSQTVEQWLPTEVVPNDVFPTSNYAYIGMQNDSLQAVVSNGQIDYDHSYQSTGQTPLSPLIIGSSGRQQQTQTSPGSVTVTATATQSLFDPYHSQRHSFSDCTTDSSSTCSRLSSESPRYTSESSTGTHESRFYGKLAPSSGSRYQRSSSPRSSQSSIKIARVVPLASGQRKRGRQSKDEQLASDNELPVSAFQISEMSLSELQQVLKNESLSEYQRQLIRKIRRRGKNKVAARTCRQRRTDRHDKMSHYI
# [8] = cytotoxicity in HPDE-C7 cells, cell-based, fluorescence, HTS (AID 430); format: functional; details: Homo sapiens
# [9] = cytotoxicity in KRAS-transformed pancreatic duct cells, primary screen, cell-based, fluorescence, HTS (AID 431); format: functional; details: Homo sapiens;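 note: cell line used: HPDE-C7K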
# [10] = Fluorescence Cell-Based Dose Response to Identify Inhibitors of Thrombin Receptor-Activating Peptide SFLLRN-Mediated P-Selectin Induction on Platelets. [Related pubchem assays: 1663 (Primary HTS), 1889 (retest at dose ), 1891 (counterscreen), 1678 (Project Summary)]; format: functional
# [11] = Luminescence Cell-Based Dose Confirmation HTS to Identify Inhibitors of Platelet Dense Granule Release. [Related pubchem assays: 1663 (Primary HTS), 1678 (Summary of Project)]; format: functional
# [12] = biological target: Luciferin 4-monooxygenase (Photinus pyralis, UniProt P08659); test: firefly luciferase enzyme inhibitors, dose response, biochemical, luminescence (AID 1891)
# Chain of Luciferin 4-monooxygenase (P08659 whole entry): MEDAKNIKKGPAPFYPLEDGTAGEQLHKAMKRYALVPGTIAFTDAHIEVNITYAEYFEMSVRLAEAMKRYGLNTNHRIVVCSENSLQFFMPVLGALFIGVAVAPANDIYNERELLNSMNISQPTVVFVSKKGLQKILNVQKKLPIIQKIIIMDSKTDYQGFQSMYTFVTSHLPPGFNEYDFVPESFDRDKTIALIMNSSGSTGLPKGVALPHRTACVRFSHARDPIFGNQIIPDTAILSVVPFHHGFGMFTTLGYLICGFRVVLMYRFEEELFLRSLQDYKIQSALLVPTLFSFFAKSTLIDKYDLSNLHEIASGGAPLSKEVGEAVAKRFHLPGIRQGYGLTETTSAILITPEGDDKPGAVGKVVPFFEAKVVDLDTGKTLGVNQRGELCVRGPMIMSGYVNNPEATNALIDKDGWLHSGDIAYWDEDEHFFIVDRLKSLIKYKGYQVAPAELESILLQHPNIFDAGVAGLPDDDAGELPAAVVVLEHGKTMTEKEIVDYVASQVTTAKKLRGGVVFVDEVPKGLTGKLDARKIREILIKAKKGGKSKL
# [13] = biological target: Aryl hydrocarbon receptor (Homo sapiens, UniProt P35869); test: Luminescence-based cell-based high throughput dose response assay for activators of the Aryl Hydrocarbon Receptor (AHR). [Related pubchem assays: 2796 (Primary screen (AHR activators in singlicate)), 2845 (Confirmation screen (AHR activators in triplicate)), 434939 (Counterscreen (PXR activators in triplicate)), 2804 (Summary (AHR activators))]; format: ADME
# Chain of Aryl hydrocarbon receptor (P35869 whole entry): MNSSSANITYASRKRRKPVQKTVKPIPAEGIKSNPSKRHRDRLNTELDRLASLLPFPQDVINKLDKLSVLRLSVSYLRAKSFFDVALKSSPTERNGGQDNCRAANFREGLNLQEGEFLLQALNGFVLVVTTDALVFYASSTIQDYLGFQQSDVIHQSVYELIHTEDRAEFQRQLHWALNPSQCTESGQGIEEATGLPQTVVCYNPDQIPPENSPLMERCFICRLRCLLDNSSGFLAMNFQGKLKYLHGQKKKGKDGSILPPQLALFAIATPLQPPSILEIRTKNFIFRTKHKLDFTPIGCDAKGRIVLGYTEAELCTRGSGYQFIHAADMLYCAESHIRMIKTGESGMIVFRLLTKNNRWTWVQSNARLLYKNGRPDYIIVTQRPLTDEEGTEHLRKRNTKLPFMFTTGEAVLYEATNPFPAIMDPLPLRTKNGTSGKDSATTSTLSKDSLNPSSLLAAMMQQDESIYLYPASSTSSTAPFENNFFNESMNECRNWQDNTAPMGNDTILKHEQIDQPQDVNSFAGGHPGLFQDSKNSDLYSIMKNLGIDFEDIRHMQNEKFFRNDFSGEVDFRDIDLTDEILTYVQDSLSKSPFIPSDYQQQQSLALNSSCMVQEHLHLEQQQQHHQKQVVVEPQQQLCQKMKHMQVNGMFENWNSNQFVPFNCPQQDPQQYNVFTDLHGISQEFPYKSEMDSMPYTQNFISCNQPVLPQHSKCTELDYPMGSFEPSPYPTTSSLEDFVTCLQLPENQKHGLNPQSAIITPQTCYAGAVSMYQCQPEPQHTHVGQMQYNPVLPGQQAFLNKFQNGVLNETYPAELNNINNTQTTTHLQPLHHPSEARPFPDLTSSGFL
# [14] = biological target: Fructose-bisphosphate aldolase (Mycobacterium tuberculosis, UniProt P9WQA3); test: Fluorescence-based biochemical high throughput dose response assay for inhibitors of the fructose-bisphosphate aldolase (FBA) of M. tuberculosis.; format: functional
# Chain of Fructose-bisphosphate aldolase (P9WQA3 whole entry): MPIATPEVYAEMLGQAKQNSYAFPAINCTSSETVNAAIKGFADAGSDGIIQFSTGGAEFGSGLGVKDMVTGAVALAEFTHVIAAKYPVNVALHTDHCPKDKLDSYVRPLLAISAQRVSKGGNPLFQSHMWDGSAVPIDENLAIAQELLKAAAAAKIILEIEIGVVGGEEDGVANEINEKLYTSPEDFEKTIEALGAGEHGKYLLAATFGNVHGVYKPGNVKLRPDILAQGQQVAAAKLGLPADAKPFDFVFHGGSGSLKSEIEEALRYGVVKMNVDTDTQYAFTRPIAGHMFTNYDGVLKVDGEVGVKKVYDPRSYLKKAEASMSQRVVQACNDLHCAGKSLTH
# [15] = biological target: DNA dC->dU-editing enzyme APOBEC-3G (Homo sapiens, UniProt Q9HC16); test: Dose Response confirmation of small molecule APOBEC3G DNA Deaminase Inhibitors via a fluorescence-based single-stranded DNA deaminase assay. [Related pubchem assays (depositor defined):AID493012, AID493028]; format: functional
# Chain of DNA dC->dU-editing enzyme APOBEC-3G (Q9HC16 whole entry): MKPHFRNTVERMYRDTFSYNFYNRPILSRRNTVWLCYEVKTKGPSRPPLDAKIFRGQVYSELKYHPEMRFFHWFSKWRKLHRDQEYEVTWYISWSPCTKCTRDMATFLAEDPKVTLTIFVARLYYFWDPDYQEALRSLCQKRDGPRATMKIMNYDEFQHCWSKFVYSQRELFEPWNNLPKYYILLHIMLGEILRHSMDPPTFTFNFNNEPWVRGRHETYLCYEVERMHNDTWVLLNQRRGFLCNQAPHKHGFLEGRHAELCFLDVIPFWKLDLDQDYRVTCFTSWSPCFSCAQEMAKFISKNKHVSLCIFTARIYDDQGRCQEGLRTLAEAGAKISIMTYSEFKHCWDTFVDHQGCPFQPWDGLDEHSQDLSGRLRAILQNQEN
# Genome polyprotein = Genome polyprotein (Hepatitis C virus, UniProt Q2Q167); test: HCV core protein dimerization inhibitors, dose response, biochemical, TR-FRET (AID 2159); set-up: species or system Hepacivirus hominis;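 note: blocks dimerization of HCV core protein measured by TR-FRET between tagged core106 pairs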
# Chain of Genome polyprotein (Q2Q167 whole entry): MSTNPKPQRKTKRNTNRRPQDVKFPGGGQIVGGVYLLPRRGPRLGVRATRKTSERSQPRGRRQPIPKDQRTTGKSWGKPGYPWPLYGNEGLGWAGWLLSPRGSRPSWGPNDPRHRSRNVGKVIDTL
# [16] = HeLa 2N DNA content increase, dose response, cell-based, IC50 (AID 1117349); format: functional
# [17] = HeLa 4N DNA content increase, dose response, cell-based, IC50 (AID 1117351); format: functional
# [18] = M. tuberculosis H37Rv growth inhibitors, H37Rv strain (AID 1626); format: functional
# Large T antigen = Large T antigen (Simian virus 40, UniProt P03070); format: functional, Betapolyomavirus macacae;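 note: Confirmatory-stage PubChem screen for compounds that inhibit SV40 T antigen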
# Chain of Large T antigen (P03070 whole entry): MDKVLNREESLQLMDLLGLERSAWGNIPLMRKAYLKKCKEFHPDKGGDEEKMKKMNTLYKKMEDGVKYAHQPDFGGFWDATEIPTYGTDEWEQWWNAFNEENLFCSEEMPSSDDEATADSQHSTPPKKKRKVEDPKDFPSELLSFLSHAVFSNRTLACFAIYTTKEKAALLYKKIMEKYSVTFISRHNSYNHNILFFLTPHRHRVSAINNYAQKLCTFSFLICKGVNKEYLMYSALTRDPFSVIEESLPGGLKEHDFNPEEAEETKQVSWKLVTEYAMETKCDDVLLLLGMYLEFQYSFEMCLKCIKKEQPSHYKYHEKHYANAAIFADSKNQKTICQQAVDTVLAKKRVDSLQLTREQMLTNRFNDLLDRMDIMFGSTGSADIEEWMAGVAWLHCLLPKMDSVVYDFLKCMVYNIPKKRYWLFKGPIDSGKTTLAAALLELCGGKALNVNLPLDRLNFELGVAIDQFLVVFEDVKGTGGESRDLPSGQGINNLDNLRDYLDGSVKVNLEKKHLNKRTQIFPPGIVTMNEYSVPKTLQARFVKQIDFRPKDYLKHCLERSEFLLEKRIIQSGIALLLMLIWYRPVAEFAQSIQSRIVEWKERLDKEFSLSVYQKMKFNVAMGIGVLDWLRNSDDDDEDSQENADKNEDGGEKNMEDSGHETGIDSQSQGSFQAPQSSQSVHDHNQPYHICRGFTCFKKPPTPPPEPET
# [19] = biological target: T3, Replicative DNA helicase DnaB (Mycobacterium tuberculosis, UniProt P9WMR3); test: DnaB intein splicing inhibitors, dose response, biochemical, cell-free fluorescence (AID 449749); format: functional
# T3 sequence (P9WMR3 whole entry): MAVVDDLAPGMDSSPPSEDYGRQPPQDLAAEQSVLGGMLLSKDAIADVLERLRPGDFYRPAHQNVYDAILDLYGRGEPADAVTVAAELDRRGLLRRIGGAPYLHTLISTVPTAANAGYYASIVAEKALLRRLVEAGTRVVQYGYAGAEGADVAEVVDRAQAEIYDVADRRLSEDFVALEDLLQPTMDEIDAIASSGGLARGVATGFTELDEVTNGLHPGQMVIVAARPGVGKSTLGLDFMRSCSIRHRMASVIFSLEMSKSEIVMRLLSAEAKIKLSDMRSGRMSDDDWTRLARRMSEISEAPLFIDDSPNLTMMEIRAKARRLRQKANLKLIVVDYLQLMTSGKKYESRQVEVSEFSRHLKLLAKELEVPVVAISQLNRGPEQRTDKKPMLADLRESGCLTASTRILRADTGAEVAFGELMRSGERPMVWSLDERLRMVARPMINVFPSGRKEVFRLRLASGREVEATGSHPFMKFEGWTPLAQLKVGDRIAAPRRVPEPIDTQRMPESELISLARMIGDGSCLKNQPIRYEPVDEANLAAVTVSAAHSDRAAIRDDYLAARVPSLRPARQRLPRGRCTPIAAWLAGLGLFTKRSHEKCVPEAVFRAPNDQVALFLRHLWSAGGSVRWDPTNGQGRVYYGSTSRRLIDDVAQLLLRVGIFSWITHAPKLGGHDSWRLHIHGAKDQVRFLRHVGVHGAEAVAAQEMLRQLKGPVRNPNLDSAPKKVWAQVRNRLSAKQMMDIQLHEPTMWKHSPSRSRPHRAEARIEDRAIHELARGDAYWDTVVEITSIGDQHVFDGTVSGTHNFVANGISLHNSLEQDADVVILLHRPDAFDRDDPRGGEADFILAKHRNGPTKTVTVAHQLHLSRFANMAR
# Protein RecA = biological target: T4, Protein RecA (Mycobacterium tuberculosis, UniProt P9WHJ3); test: Fluorescence Cell-Free Homogeneous Dose Retest to Identify Inhibitors of RecA-Intein Splicing Activity. [Related pubchem assays (depositor defined):AID2097, AID2223, AID489010, AID492950]; format: functional
# T4 sequence (P9WHJ3 whole entry): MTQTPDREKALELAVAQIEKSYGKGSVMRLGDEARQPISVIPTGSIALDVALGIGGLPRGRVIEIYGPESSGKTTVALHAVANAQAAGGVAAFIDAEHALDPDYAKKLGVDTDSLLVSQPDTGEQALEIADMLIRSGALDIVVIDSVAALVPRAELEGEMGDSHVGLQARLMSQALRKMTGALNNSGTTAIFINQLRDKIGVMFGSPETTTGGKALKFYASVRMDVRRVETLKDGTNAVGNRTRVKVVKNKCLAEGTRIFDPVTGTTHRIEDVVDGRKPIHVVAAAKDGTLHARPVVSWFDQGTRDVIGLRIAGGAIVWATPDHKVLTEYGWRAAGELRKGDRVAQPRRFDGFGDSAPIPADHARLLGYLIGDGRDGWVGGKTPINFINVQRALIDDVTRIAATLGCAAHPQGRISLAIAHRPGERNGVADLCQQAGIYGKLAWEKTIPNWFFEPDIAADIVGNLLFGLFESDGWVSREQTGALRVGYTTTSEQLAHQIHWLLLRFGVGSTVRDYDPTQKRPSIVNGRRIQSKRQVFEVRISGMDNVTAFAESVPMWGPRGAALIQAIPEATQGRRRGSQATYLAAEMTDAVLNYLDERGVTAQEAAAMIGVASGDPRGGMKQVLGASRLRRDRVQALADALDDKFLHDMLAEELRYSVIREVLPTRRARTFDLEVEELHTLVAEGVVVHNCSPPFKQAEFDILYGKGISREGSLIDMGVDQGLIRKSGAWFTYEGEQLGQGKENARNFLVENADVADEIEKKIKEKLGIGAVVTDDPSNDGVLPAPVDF
smiles,measurement,setting,value
CO[C@@H]1CN(C)C(=O)c2ccc(NC(=O)Nc3ccccc3F)cc2OC[C@@H](C)N(CC2CC2)C[C@H]1C,AC50,[1],6.67 µM (active)
same,AC50,[2],3.04 µM (active)
same,AC50,[3],0.399 µM (active)
same,AC50,[4],0.799 µM (active)
same,AC50,[5],0.0955 µM (active)
same,AC50,[6],> 100 µM (inactive)
same,AC50,[7],0.961 µM (active)
N#Cc1c(N)oc(-c2ccc3c(c2)OCO3)c1-c1ccc2c(c1)OCO2,IC50,Estrogen receptor,> 50 µM (not active)
same,IC50,Protein skinhead-1,> 100 µM (inactive)
CCCC(=O)Nc1ccc2c(c1)OC[C@@H](C)N(Cc1ccccc1F)C[C@@H](C)[C@H](OC)CN(C)C2=O,AC50,[1],4.01 µM (active)
same,AC50,[2],1.78 µM (active)
same,AC50,[3],0.841 µM (active)
same,AC50,[5],0.34 µM (active)
same,AC50,[7],1.33 µM (active)
O=S(=O)(CC(CN1CCCC1)N1CCCC1)c1ccc2ccccc2c1 (centres undefined),EC50,[8],2.04 µM (active)
same,EC50,[9],2.38 µM (active)
COC(=O)CS(=O)(=O)c1ccc2c(c1)CC(=O)N2,EC50,[10],< 1 µM (active)
same,EC50,[11],1.45 µM (active)
same,EC50,[12],> 112 µM (not active)
O=C(Nc1ccon1)c1cnc2sccn2c1=O,EC50,[13],1.85 µM (active)
same,IC50,[14],4.61 µM (active)
O=C1c2c(O)cccc2Cc2cccc(O)c21 [ANTHRALIN],IC50,[15],> 100 µM (inactive)
same,IC50,Genome polyprotein,> 49.8 µM (not active)
same,IC50,[16],> 10 µM (inactive)
same,IC50,[17],> 10 µM (inactive)
Oc1cnn(-c2ccccc2)c1,IC50,[18],> 100 µM (active)
same,IC50,Large T antigen,4.71 µM (active)
same,AC50,[19],12.7 µM (active)
same,EC50,Protein RecA,1.1 µM (active)
